Test system: CD19 CAR T cells from bulk T cells (PBMC), TCM, naïve/memory T cells
Experiment: Generation of memory CD19 CAR T cells from different T cell subsets
Type: cell-based, human
Description: FIGS. 6A-6B: Akt inhibition promotes the generation of memory CD19 CAR T cells from different T cell subsets. […] Resultant CD19 CAR T cells were stained with biotinylated Erbitux (cetuximab), followed by streptavidin-PE for CAR detection and antibodies against CD62L. Percentages of CAR+CD62L+ cells are depicted on the basis of the gating of isotype-stained cells. (B) Percentages of CD62L+CD28+ T cells after gating on CAR+CD8+ from six lines of CD19 CAR T cells derived from two different donors are presented.
Resultant CD19CAR T cells were stained with biotinylated Erbitux (cetuximab), followed by streptavidin-PE for CAR detection and antibodies against CD62L. Cells expressing CD62 represent TCM cells or TSCM cells.
Samples from two donors were used to prepare PBMC, TCM, and TN/TCM/TSCM cell populations.

O=c1[nH]c2ccccc2n1C1CCN(Cc2ccc(-c3nc4cc5[nH]cnc5cc4nc3-c3ccccc3)cc2)CC1 [Akt inhibitor VIII, 1,3-dihydro-1-[1-[[4-(6-phenyl-1H-imidazo[4,5-g]quinoxalin-7-yl)phenyl]methyl]-4-piperidinyl]-2H-benzimidazol-2-one]
percentage of CD62L+ expressing CAR T cells (1 μM Akt inhibitor VIII, 17-21 days, bulk T cells, TCM cells or naïve/memory T cells, FIG. 6A): increases the percentage of CD62L+ expressing CAR T cells
number of CD62L+/CD28+/CAR+ T cells (six cell populations from two donors, 17-21 days with or without Akt inhibitor VIII, FIG. 6B): increased the number of CD62L+/CD28+/CAR+ T cells
